Measured values as given in patent US12157736B2, “Spiro-lactam NMDA modulators and methods of using same” (Tenacia Biotechnology (Hong Kong) Co., Limited, priority 2016, dated 2024).

Experiments:
NMDAR2A = molecular target: T1, NMDAR2A (Homo sapiens, UniProt Q12879); test: NMDAR agonist assay, [3H]MK-801 binding, NMDAR2A expressing HEK cell membranes; format: biochemical; details: 50 μM glutamate; for EC50: read-out: NMDAR2A: log EC50 (converted)
T1 construct: expressed in transfected cells; host or cells: HEK cells (membrane extract)
T1 sequence (Q12879 23-1464, species assumed, other chains not shown): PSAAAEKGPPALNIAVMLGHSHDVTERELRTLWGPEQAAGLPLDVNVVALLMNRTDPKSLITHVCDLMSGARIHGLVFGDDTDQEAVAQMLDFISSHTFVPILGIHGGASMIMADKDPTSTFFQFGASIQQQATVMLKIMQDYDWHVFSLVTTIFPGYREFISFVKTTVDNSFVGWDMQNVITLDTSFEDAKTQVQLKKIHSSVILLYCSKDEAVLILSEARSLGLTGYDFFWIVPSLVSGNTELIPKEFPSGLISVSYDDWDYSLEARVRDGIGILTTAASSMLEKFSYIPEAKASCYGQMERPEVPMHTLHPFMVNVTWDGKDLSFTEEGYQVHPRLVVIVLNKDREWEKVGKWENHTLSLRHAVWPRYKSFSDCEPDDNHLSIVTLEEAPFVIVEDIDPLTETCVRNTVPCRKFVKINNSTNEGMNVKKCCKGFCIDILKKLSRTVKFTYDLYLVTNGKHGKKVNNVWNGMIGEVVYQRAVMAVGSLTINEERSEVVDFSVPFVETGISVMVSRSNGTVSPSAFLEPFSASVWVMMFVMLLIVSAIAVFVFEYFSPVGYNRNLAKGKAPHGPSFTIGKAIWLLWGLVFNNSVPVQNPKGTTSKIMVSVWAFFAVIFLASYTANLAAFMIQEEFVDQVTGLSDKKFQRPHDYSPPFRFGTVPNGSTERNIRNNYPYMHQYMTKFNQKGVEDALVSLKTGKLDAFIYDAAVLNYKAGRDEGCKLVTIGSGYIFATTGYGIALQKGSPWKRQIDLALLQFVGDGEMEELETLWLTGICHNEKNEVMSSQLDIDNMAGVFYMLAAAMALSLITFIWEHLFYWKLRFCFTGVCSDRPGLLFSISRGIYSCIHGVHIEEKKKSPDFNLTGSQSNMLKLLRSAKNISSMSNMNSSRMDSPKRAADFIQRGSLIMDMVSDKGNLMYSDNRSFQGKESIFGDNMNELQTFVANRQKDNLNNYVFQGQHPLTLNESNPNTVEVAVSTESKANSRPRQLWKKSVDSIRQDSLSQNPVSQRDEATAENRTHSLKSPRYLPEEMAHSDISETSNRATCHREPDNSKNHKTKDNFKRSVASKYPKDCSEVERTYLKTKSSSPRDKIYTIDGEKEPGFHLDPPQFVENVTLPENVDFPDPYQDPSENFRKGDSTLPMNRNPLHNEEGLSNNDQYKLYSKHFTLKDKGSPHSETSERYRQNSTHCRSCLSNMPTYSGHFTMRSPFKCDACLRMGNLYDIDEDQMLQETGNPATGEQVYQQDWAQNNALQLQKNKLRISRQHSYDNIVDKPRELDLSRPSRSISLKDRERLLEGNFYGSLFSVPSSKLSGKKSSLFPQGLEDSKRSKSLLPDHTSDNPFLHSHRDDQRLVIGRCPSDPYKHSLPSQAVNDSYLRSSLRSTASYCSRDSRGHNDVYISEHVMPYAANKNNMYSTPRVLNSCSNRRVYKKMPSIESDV
Procedure: (§1) Assays were conducted as described by Moskal et al., “GLYX-13: a monoclonal antibody-derived peptide that acts as an N-methyl-D-aspartate receptor modulator,” Neuropharmacology, 49, 1077-87, 2005. These studies were designed to determine if the test compounds act to facilitate NMDAR activation in NMDAR2A, NMDAR2B, NMDAR2C or NMDAR2D expressing HEK cell membranes as measured by increases in [^3H]MK-801 binding.
(§2) In the assay, 300 μg of NMDAR expressing HEK cell membrane extract protein was preincubated for 15 minutes at 25° C. in the presence of saturating concentrations of glutamate (50 μM) and varying concentrations of test compound (1×10^−15M−1×10^−7M), or 1 mM glycine. Following the addition of […] of [^3H]MK-801 (22.5 Ci/mmol), reactions were again incubated for 15 minutes at 25° C. (nonequilibrium conditions). Bound and free [^3H]MK-801 were separated via rapid filtration using a Brandel apparatus.
(§3) In analyzing the data, the DPM (disintegrations per minute) of [^3H]MK-801 remaining on the filter were measured for each concentration of test compound or for 1 mM glycine. The DPM values for each concentration of a ligand (N=2) were averaged. The baseline value was determined from the best fit curve of the DPM values modeled using the GraphPad program and the log(agonist) vs. response (three parameters) algorithm was then subtracted from all points in the dataset. The % maximal [3H]MK-801 binding was then calculated relative to that of 1 mM glycine: all baseline subtracted DPM values were divided by the average value for 1 mM glycine. The EC50 and % maximal activity were then obtained from the best fit curve of the % maximal [3H]MK-801 binding data modelled using the GraphPad program and the log(agonist) vs. response (three parameters) algorithm.
(§4) The tables below summarize the results for the wild type […] NMDAR2A, NMDAR2B, NMDAR2C, and NMDAR2D, and whether the compound is not an agonist (−), is an agonist (+), or is a strong agonist (++), where column A is based on the % maximal [3H]MK-801 binding relative to 1 mM glycine (−=0; <100%=+; and >100%=++); and column B is based on log EC50 values (0=−; ≥1×10^−9 M (e.g., −8)=+; and <1×10^−9 M (e.g., −10)=++).

NMDAR2C = molecular target: T2, NMDAR2C (Homo sapiens, UniProt Q14957); test: NMDAR agonist assay, [3H]MK-801 binding, NMDAR2C expressing HEK cell membranes; format: biochemical; details: 50 μM glutamate; for EC50: read-out: NMDAR2C: log EC50 (converted)
T2 construct: expressed in transfected cells; host or cells: HEK cells (membrane extract)
T2 sequence (Q14957 20-1233, species assumed, other chains not shown): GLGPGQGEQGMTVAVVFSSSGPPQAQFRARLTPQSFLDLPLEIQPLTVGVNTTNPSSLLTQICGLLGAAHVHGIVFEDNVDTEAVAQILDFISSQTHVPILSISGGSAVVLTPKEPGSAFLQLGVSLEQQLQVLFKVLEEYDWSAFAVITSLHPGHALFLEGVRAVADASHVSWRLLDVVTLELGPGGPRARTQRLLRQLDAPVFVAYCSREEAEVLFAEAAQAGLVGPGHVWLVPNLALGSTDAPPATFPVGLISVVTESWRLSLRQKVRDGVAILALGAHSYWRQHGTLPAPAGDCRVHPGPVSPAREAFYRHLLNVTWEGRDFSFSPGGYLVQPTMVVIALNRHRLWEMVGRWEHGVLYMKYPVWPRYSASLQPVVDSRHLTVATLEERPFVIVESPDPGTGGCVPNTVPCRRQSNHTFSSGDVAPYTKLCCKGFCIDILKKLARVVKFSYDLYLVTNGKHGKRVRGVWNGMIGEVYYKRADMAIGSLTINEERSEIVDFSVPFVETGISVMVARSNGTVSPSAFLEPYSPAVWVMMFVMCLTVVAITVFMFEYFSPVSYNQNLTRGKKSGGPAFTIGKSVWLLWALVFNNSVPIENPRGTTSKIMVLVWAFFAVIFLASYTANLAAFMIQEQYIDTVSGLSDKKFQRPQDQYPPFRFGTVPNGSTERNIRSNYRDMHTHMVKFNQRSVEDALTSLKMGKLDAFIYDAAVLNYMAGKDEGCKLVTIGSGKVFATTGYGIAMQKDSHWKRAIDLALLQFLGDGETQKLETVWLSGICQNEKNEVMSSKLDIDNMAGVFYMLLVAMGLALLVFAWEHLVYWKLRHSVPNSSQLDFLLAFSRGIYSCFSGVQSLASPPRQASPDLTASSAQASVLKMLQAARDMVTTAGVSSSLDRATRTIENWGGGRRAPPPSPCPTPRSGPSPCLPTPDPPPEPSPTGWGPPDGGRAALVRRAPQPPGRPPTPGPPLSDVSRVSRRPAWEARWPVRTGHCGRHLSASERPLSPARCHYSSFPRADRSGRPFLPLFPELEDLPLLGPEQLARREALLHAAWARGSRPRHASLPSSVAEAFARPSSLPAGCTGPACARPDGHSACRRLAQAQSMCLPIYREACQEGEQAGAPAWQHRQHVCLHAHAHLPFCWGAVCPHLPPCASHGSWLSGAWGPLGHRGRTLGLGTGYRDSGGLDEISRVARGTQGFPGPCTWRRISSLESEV
Procedure: as §1, §2, §3, §4

NMDAR2D = molecular target: T3, NMDAR2D (Homo sapiens, UniProt O15399); test: NMDAR agonist assay, [3H]MK-801 binding, NMDAR2D expressing HEK cell membranes; format: biochemical; details: 50 μM glutamate
T3 construct: expressed in transfected cells; host or cells: HEK cells (membrane extract)
T3 sequence (O15399 28-1336, species assumed, other chains not shown): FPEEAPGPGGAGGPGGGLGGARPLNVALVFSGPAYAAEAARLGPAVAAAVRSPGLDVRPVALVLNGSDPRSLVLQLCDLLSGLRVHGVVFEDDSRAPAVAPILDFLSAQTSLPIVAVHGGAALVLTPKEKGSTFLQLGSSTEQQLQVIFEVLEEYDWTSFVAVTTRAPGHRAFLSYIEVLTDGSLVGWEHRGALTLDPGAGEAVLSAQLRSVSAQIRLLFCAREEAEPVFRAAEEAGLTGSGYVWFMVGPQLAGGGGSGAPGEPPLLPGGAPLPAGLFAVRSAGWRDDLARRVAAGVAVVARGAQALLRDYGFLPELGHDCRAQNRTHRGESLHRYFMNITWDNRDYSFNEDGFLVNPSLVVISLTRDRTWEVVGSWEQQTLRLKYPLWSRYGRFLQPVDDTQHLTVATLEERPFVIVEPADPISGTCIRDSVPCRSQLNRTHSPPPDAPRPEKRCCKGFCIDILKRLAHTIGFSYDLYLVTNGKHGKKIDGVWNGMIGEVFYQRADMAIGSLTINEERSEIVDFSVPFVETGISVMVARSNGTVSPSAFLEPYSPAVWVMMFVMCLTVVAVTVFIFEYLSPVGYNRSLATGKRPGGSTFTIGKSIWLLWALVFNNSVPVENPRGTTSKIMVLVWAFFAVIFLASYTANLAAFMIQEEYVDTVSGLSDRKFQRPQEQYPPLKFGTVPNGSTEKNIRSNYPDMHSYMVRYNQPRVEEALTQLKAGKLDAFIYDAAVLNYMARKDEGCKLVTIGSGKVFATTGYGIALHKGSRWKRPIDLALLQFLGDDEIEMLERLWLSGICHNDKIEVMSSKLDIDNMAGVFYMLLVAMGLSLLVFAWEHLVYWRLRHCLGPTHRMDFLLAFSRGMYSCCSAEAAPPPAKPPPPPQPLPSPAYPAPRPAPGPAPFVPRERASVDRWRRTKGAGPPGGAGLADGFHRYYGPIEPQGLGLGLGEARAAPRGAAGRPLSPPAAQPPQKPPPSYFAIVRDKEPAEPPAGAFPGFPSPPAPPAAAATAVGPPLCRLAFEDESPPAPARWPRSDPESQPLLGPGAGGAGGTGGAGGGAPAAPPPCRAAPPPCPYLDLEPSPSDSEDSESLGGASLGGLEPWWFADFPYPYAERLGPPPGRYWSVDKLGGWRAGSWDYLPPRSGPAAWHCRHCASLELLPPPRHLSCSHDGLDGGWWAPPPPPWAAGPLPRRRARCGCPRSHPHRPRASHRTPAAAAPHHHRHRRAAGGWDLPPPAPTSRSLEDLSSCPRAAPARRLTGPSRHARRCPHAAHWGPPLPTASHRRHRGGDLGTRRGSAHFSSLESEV
Procedure: as §1, §2
as §3, with “algorithm. […]” for “algorithm.”

IV pharmacokinetics = format: in vivo, Sprague Dawley rats; details: rat, 2 mg/kg, normal saline
Procedure: Sprague Dawley rats were dosed intravenously using a normal saline formulation containing 2 mg/kg of the compounds identified in the below table. The table below summarizes the results of the IV pharmacokinetics.

rats [1] = test: Porsolt forced swim test; format: in vivo, Sprague Dawley rats
Procedure: A non-clinical in vivo pharmacology study (Porsolt assay) was performed to measure antidepressant-like effects. A negative control (0.5% sodium carboxymethyl cellulose in 0.9% sterile saline vehicle) and a positive control (fluoxetine) are shown for comparison against test compound. The study allowed for the evaluation of the effects of each compound on the Porsolt forced swim test as assessed by the rats' response (reduced floating time) during a 5-minute swimming test.
(§5) Male 2-3 month old Sprague Dawley rats were used (Harlan, Indianapolis, IN). Rats were housed in Lucite cages with aspen wood chip bedding, maintained on a 12:12 light:dark cycle (lights on at 5 AM), and given ad libitum access to Purina lab chow (USA) and tap water throughout the study.
The Porsolt forced swim test adapted for use in rats was performed as described by Burgdorf et al., (The long-lasting antidepressant effects of rapastinel (GLYX-13) are associated with a metaplasticity process in the medial prefrontal cortex and hippocampus. Neuroscience 308:202-211, 2015). Animals were placed in a 46 cm tall×20 cm in diameter clear glass tube filled to 30 cm with tap water (23±1° C.) for 15 min on the first day (habituation) and 5 min on the subsequent test day. Positive control fluoxetine was dosed 3 times (24 h, 5 h and 1 h) prior to testing. Animals were tested 1 h or 24 h post-dosing with the test compounds or vehicle. Animals received a 15 min habituation session 1 day before the 5 min test. Water was changed after every other animal. Animals were videotaped, and floating time as defined as the minimal amount of effort required to keep the animals head above water was scored offline by a blinded experimenter with high inter-rater reliability (Pearson's r>0.9).
Each compound tested at dose level shown. Significance vs. vehicle group for each experiment is marked. […] A compound marked “No” was not statistically significant from vehicle. Data was averaged for test compound and vehicle groups (N approximately 8 per group) and the percent reduction in floating for group treated with test compound relative to group treated with vehicle is shown.

NMDAR2B = molecular target: T4, NMDAR2B (Homo sapiens, UniProt Q13224); test: NMDAR agonist assay, [3H]MK-801 binding, NMDAR2B expressing HEK cell membranes; format: biochemical; details: 50 μM glutamate
T4 construct: expressed in transfected cells; host or cells: HEK cells (membrane extract)
Procedure: as §1, §2, §3, §4

rats [2] = test: Bennett model of mechanical analgesia (sciatic nerve chronic constriction injury); format: in vivo, Sprague Dawley rats; details: 150 mg/kg PO
Procedure: The Bennett model of mechanical analgesia is used to assess the analgesic effects of compounds as measured by paw withdrawal threshold. Bennett G J, Xie Y K, “A peripheral mononeuropathy in rat that produces disorders of pain sensation like those seen in man,” Pain 33:87-107, 1988. […] Vehicle animals receive the surgery and then receive vehicle rather than test compound. Animals were tested 1 hr, 24 h and 1 wk post-test compound or vehicle administration.
as §5, with “used. Harlan was the supplier for all studies.” for “used (Harlan, Indianapolis, IN).”
Rats were anesthetized using inhaled isoflurane (2.5%). Sciatic nerve chronic constriction nerve injury surgery was performed as previously described (Bennett and Xie, 1988). An incision (˜1.5 cm in length) was made with a scalpel blade dorsally through skin on the right hind limb, parallel and posterior to femur. Using a small pointed hemostat, the biceps femoris and gluteus superficialis muscles were separated. Using curved blunt forceps, the common sciatic nerve was isolated and exposed. For the mechanical analgesia studies, the whole sciatic nerve was ligated. Using hemostats/forceps and chromic gut (5-0), the nerve was loosely ligated with a square knot; 3 ligatures, 1 mm apart were placed on the nerve. […] Testing occurred approximately 2 weeks post-surgery.
During testing, rats were acclimated to the surface of a suspended wire mesh grid (1 cm×1 cm, with the wire being 0.3 cm in diameter) for 15-20 min. Starting from the smallest, each Von Frey filament was pressed perpendicularly to the plantar surface of the affected (ipsilateral) hind paw until slightly bent and then held for 6 second. If an obvious hind paw withdrawal or a flinching behavior immediately after the withdrawal of the filament was not observed, the next larger filament was used in the same manner. In case of a response, a lower filament was used. This was repeated until six responses were collected.
For all studies, animals were baselined prior to study start to test for allodynia (defined as a paw withdrawal threshold under 5). A subset of animals was tested with gabapentin (150 mg/kg, PO) to ensure at least 50% analgesia. Once it was confirmed animals were ready for study initiation, animals were balanced across groups. All study investigators were blind to treatment conditions. Animals were dosed with 0.1, 1, 10, or 30 mg/kg of test compound via oral gavage (PO), control sets of animals were dosed with gabapentin (150 mg/kg, PO) or vehicle (0.5% Na-CMC in 0.9% sterile saline, PO). Testing occurred 1 h post-dosing with animals retested 24 hrs and 1 week post-dosing. The percent analgesia calculations for each animal were made using the following equation: % analgesia=[(log(x)−y)/((log(z)−y)]*100, where x=the paw withdrawal threshold for the drug-treated animal in grams, y=the average of the log(x) values for the vehicle treated group, and z=the paw withdrawal threshold for naïve animals in grams (historical value of 15 used). The results for Compound AA-2, where the percentage of analgesia is measured at 1 hour, 24 hours, and 1 week after compound administration are as follows: for 0.1 mg/kg dose: 22.3% at 1 h, 1.6% at 24 h, and 2.3% at 1 wk; for 1 mg/kg dose: 19.2% at 1 h, 10.7% at 24 h, and 11.0% at 1 wk; for 10 mg/kg dose: 38.1% at 1 h, 24.3% at 24 h, and 41.4% at 1 wk; and for 30 mg/kg dose: 24.4% at 1 h, 8.7% at 24 h, and 34.5% at 1 wk.

[3] = 1 h post-dose, 0.1 mg/kg, Yes = statistically significant (p<=0.05) from vehicle
[4] = 24 h post-dose, 0.1 mg/kg, Yes = statistically significant (p<=0.05) from vehicle

SMILES	EC50 (NMDAR2A)	NMDAR2C A: % maximal [3H]MK-801 binding relative to 1 mM glycine (NMDAR2C)	EC50 (NMDAR2C)	NMDAR2D: % maximal [3H]MK-801 binding relative to 1 mM glycine (NMDAR2D)	CI (IV pharmacokinetics)	Significance vs. vehicle (rats [1]; [3])	Significance vs. vehicle (rats [1]; [4])	further results
COc1ccc(CN2CC3(CCNC(=O)C3)C2=O)cc1 (racemic) [AA-rac, 2-(4-methoxybenzyl)-2,7-diazaspiro[3.5]nonane-1,6-dione]	> 0.1 µM	− (−=0)	> 0.1 µM	+ (<100%=+)	0.317 L/h/kg	Yes	Yes	
C[C@@H](O)[C@@H](C(=O)NCc1ccccc1)N1CC2(CCNC(=O)C2)C1=O (single isomer, unassigned) [CB]					1.519 L/h/kg			NMDAR2A: % maximal [3H]MK-801 binding relative to 1 mM glycine (NMDAR2A): − (−=0); NMDAR2B: % maximal [3H]MK-801 binding relative to 1 mM glycine (NMDAR2B): + (<100%=+)
CCN1CCC2(CC1=O)CN(Cc1ccc(OC)cc1)C2=O (single isomer, unassigned) [CL, 7-ethyl-2-(4-methoxybenzyl)-2,7-diazaspiro[3.5]nonane-1,6-dione]					2.504 L/h/kg			NMDAR2A: % maximal [3H]MK-801 binding relative to 1 mM glycine (NMDAR2A): + (<100%=+); NMDAR2B: % maximal [3H]MK-801 binding relative to 1 mM glycine (NMDAR2B): + (<100%=+)
COc1ccc(CN2C[C@]3(CCNC(=O)C3)C2=O)cc1 [AA-1, 2-(4-methoxybenzyl)-2,7-diazaspiro[3.5]nonane-1,6-dione]	> 0.1 µM	− (−=0)	> 0.1 µM	+ (<100%=+)	0.581 L/h/kg	Yes	Yes	
COc1ccc(CN2C[C@@]3(CCNC(=O)C3)C2=O)cc1 [Compound AA-2, 2-(4-methoxybenzyl)-2,7-diazaspiro[3.5]nonane-1,6-dione]	> 0.1 µM	− (−=0)	> 0.1 µM	+ (<100%=+)	0.589 L/h/kg	Yes	Yes	
CNCCC(Oc1ccc(C(F)(F)F)cc1)c1ccccc1 (stereo not shown) [Fluoxetine, fluoxetine, reference compound]								Significance vs. vehicle (rats [1]; 1 h post-dose, 20 mg/kg, dosed 3 times (24 h, 5 h and 1 h) prior to testing, positive control): Yes
NCC1(CC(=O)O)CCCCC1 [gabapentin]								% analgesia, control group of the study (rats [2]; 1 week post-administration): under 5%; % analgesia, example (typical) control values (rats [2]; 1 wk): 0%; % analgesia, example (typical) control values (rats [2]; 1 h): 72%; % analgesia, control group of the study (rats [2]; 1 h post-administration): at least 50%; % analgesia, example (typical) control values (rats [2]; 24 h): 16%; % analgesia, control group of the study (rats [2]; 24 h post-administration): under 5%
